Measurements as given in US20140303092A1 (CHIMERIX, INC., priority 2011, published 2014).

Test: Study HDP-CDV-201: safety and tolerability (adverse events, laboratory abnormalities, discontinuations)
Assay type: in vivo, human (adult allogeneic HSCT recipients)
Procedure: Clinical Studies of HDP-CDV were performed and described in detail in the following Examples. For example, HDP-CDV-201 is a placebo-controlled, dose-escalating trial in HSCT CMV (R+) recipients, evaluating the ability of HDP-CDV to prevent or control CMV infection was carried out. Five cohorts were established in which participants or subjects received either placebo or the HDP-CDV orally, in doses ranging from 40 mg weekly (QW) to 200 mg twice weekly (BIW). Subjects who were post-HSCT were enrolled at the time of engraftment and randomized to HDP-CDV or placebo (3 to 1 ratio) and received blinded therapy until approximately 100 day post-transplantation. HDP-CDV doses were 40 mg QW, 100 mg QW, 200 mg QW, 200 mg BIW and 100 mg BIW. Escalation to the next dose was decided by the data monitoring committee after review of the safety data from the previous Cohort. Subjects who developed CMV disease or CMV infection requiring pre-emptive therapy with local standard of care were discontinued from blinded therapy and followed for 4 weeks. Subjects who completed treatment with blinded therapy were followed for 8 weeks post-therapy.
Data from Study HDP-CDV-201 also provided characterization of the safety and tolerability profile of HDP-CDV when administered for the prevention or control of CMV infection in high risk (R^+) post-HSCT adult subjects.
The Safety population (SAFETY) included all randomized subjects who took at least one dose of study treatment. This population was used to summarize safety outcomes based on the treatment actually received, in cases where a subject was treated contrary to the randomization schedule.
The safety and tolerability profile of HDP-CDV, including subject demographics and Baseline characteristics; the AE profile; and laboratory abnormalities of interest were analyzed in the cohorts followed in this investigation.
Subjects completing the treatment period received a full course of study medication; those completing the entire study attended visits through 8 weeks of follow up. Subjects who discontinued treatment may have done so for protocol specified reasons (e.g. development of clinically significant CMV infection requiring preemptive treatment with excluded anti-CMV medications) or for other reasons (e.g., withdrawal, adverse events, loss to follow-up). The disposition of subjects in Study HDP-CDV-201 during the double-blind, placebo-controlled treatment period (through Week 11) is listed by dosing Cohort in TABLE 23.
Adverse events were examined by severity to ensure that all safety signals were identified in this study population. Because of the frequency of events in HSCT recipients, particular attention was given to evaluation of Grade 3 […], 4 (severe), and 5 (fatal) adverse events.
Only those preferred terms for which at least one Grade 3 or higher event was experienced in any treatment group are listed. Cytomegalovirus-related AEs are excluded from this analysis.
HDP-CDV is a lipid conjugate of CDV. Because CDV is known to have adverse effects on renal function and bone marrow, decreased GFR and persistent neutropenia were identified as AEs of special interest. Key renal and hematological (TABLE 30) laboratory parameters were measured and listed below by Study HDP-CDV-201 treatment groups. TABLE 30 includes abnormal levels of serum creatinine, neutrophils, platelets, WBCs, and hemoglobin and includes data at Screening and during the treatment period.
A common metric for unit based dosing of medications is by weight (mg/kg). When the distribution of weights was examined for all subjects participating in the study, the median was 78 kg and the lower 25th percentile weight was approximately 65 kg, which translates to a cut-off of ˜3 mg/kg for a 200 mg total weekly dose. Based upon this approach, a cut-off of 3 mg/kg was used to assess the frequency of diarrhea and associated GI AEs reported for the subjects in Cohorts 3 or 4a (TABLE 40).

[1] = Cohort 1, 40 mg QW, through Week 11

CCCCCCCCCCCCCCCCOCCCOP(=O)(O)COC(CO)Cn1ccc(N)nc1=O (stereo not drawn) [HDP-CDV]
Gastrointestinal AE Abdominal discomfort, subjects (Cohort 1, 40 mg QW): 0 | Gastrointestinal AE Abdominal distention, subjects (Cohort 1, 40 mg QW): 2 (8.0%) | Gastrointestinal AE Abdominal pain upper, subjects (Cohort 1, 40 mg QW): 1 (4.0%) | Gastrointestinal AE Abdominal pain, subjects (Cohort 1, 40 mg QW): 4 (16.0%) | Gastrointestinal AE Constipation, subjects (Cohort 1, 40 mg QW): 1 (4.0%) | Gastrointestinal AE Diarrhoea, subjects (Cohort 1, 40 mg QW): 3 (12.0%) | Gastrointestinal AE Diverticulum intestinal haemorragic, subjects (Cohort 1, 40 mg QW): 0 | Gastrointestinal AE Dyspepsia, subjects (Cohort 1, 40 mg QW): 3 (12.0%) | Gastrointestinal AE Dysphagia, subjects (Cohort 1, 40 mg QW): 0 | Gastrointestinal AE Epigastric discomfort, subjects (Cohort 1, 40 mg QW): 1 (4.0%) | Gastrointestinal AE Flatulence, subjects (Cohort 1, 40 mg QW): 0 | Gastrointestinal AE GERD, subjects (Cohort 1, 40 mg QW): 2 (8.0%) | Gastrointestinal AE Gastritis, subjects (Cohort 1, 40 mg QW): 0 | Gastrointestinal AE Haematochezia, subjects (Cohort 1, 40 mg QW): 1 (4.0%) | Gastrointestinal AE Haemorroids, subjects (Cohort 1, 40 mg QW): 1 (4.0%) | Gastrointestinal AE Large intestinal ulcer, subjects (Cohort 1, 40 mg QW): 1 (4.0%) | Gastrointestinal AE Nausea, subjects (Cohort 1, 40 mg QW): 6 (24.0%) | Gastrointestinal AE Odynophagia, subjects (Cohort 1, 40 mg QW): 0 | Gastrointestinal AE Oesophagitis, subjects (Cohort 1, 40 mg QW): 1 (4.0%) | Gastrointestinal AE Retching, subjects (Cohort 1, 40 mg QW): 0 | Gastrointestinal AE Vomiting, subjects (Cohort 1, 40 mg QW): 2 (8.0%) | Hepatobiliary clinical AE Cholelithiasis, subjects (Cohort 1, 40 mg QW): 1 (4.0%) | Hepatobiliary clinical AE Hepatomegaly, subjects (Cohort 1, 40 mg QW): 0 | Hepatobiliary clinical AE Hyperbilirubinaemia, subjects (Cohort 1, 40 mg QW): 1 (4.0%) | Hepatobiliary clinical AE Jaundice, subjects (Cohort 1, 40 mg QW): 0 | Hepatobiliary clinical AE Liver injury, subjects (Cohort 1, 40 mg QW): 0 | Intensity of Gastrointestinal AEs, Grade 1, subjects (Cohort 1, 40 mg QW): 9 (36.0%) | Intensity of Gastrointestinal AEs, Grade 2, subjects (Cohort 1, 40 mg QW): 6 (24.0%) | Intensity of Gastrointestinal AEs, Grade 3, subjects (Cohort 1, 40 mg QW): 2 (8.0%) | Intensity of Gastrointestinal AEs, Grade 4, subjects (Cohort 1, 40 mg QW): 0 | Intensity of Gastrointestinal AEs, Grade 5, subjects (Cohort 1, 40 mg QW): 0 | Serum ALT level, Median fold increase from Baseline at Follow-up Week 1 (Cohort 1, 40 mg QW): 1.50 fold | Serum ALT level, Median fold increase from Baseline at Follow-up Week 4 (Cohort 1, 40 mg QW): 1.00 fold | Serum ALT level, Peak Median fold increase from Baseline (Cohort 1, 40 mg QW): 1.80 fold | Subjects completed study (Cohort 1, 40 mg QW): 7 (28.0%) n (%) | Total Bilirubin (Screening) >1-[…] ULN, subjects (Cohort 1, 40 mg QW): 1 (4.0%) | Total Bilirubin (Screening) >1.5-3 × ULN, subjects (Cohort 1, 40 mg QW): 3 (12.0%) | Total Bilirubin (Screening) >3-10 × ULN, subjects (Cohort 1, 40 mg QW): 0 | Total Bilirubin (Screening) >10 × ULN, subjects (Cohort 1, 40 mg QW): 0 | Total Bilirubin (any time during therapy) >1-[…] ULN, subjects (Cohort 1, 40 mg QW): 3 (13.0%) | Total Bilirubin (any time during therapy) >1.5-3 × ULN, subjects (Cohort 1, 40 mg QW): 1 (4.3%) | Total Bilirubin (any time during therapy) >3-10 × ULN, subjects (Cohort 1, 40 mg QW): 0 | Total Bilirubin (any time during therapy) >10 × ULN, subjects (Cohort 1, 40 mg QW): 0 | Abdominal pain leading to study drug withdrawal (Cohort 1, 40 mg QW, N = 25): 0% | All AEs leading to withdrawal (Cohort 1, 40 mg QW, N = 25): 15 (60.0%) | Diarrhoea leading to study drug withdrawal (Cohort 1, 40 mg QW, N = 25): 0% | Dyspepsia leading to study drug withdrawal (Cohort 1, 40 mg QW, N = 25): 0% | Nausea leading to study drug withdrawal (Cohort 1, 40 mg QW, N = 25): 0% | TEAE ALT increased (Cohort 1, 40 mg QW, N = 25): 2 (8.0%) n (%) | TEAE AST increased (Cohort 1, 40 mg QW, N = 25): 1 (4.0%) n (%) | TEAE Abdominal pain (Cohort 1, 40 mg QW, N = 25): 4 (16.0%) n (%) | TEAE Abdominal pain, Upper (Cohort 1, 40 mg QW, N = 25): 1 (4.0%) n (%) | TEAE Acute GVHD (Cohort 1, 40 mg QW, N = 25): 6 (24.0%) n (%) | TEAE Acute Myeloid Leukemia recurrent (Cohort 1, 40 mg QW, N = 25): 3 (12.0%) n (%) | TEAE Acute Renal Failure (Cohort 1, 40 mg QW, N = 25): 2 (8.0%) n (%) | TEAE Anxiety (Cohort 1, 40 mg QW, N = 25): 0 n (%) | TEAE Arthralgias (Cohort 1, 40 mg QW, N = 25): 0 n (%) | TEAE Back Pain (Cohort 1, 40 mg QW, N = 25): 0 n (%) | TEAE Blood lactate dehydrogenase increased (Cohort 1, 40 mg QW, N = 25): 0 n (%) | TEAE Creatinine increased (Cohort 1, 40 mg QW, N = 25): 0 n (%) | TEAE Cytomegalovirus viremia (Cohort 1, 40 mg QW, N = 25): 10 (40.0%) n (%) | TEAE Decreased appetite (Cohort 1, 40 mg QW, N = 25): 4 (16.0%) n (%) | TEAE Diarrhoea (Cohort 1, 40 mg QW, N = 25): 3 (12.0%) n (%) | TEAE Dysgeusia (Cohort 1, 40 mg QW, N = 25): 1 (4.0%) n (%) | TEAE Fatigue (Cohort 1, 40 mg QW, N = 25): 1 (4.0%) n (%) | TEAE GI Reflux Disease (Cohort 1, 40 mg QW, N = 25): 2 (8.0%) n (%) | TEAE Gamma-glutamyltransferase increased (Cohort 1, 40 mg QW, N = 25): 0 n (%) | TEAE Generalized oedema (Cohort 1, 40 mg QW, N = 25): 1 (4.0%) n (%) | TEAE Hyperbilirubinaemia (Cohort 1, 40 mg QW, N = 25): 1 (4.0%) n (%) | TEAE Hyperglycaemia (Cohort 1, 40 mg QW, N = 25): 1 (4.0%) n (%) | TEAE Hyperkalemia (Cohort 1, 40 mg QW, N = 25): 1 (4.0%) n (%) | TEAE Hypocalcaemia (Cohort 1, 40 mg QW, N = 25): 1 (4.0%) n (%) | TEAE Hypokalaemia (Cohort 1, 40 mg QW, N = 25): 4 (16.0%) n (%) | TEAE Hyponatraemia (Cohort 1, 40 mg QW, N = 25): 3 (12.0%) n (%) | TEAE Increased leukocytosis (Cohort 1, 40 mg QW, N = 25): 1 (4.0%) n (%) | TEAE Insomnia (Cohort 1, 40 mg QW, N = 25): 2 (8.0%) n (%) | TEAE Liver function test abnormal (Cohort 1, 40 mg QW, N = 25): 0 n (%) | TEAE Malnutrition (Cohort 1, 40 mg QW, N = 25): 0 n (%) | TEAE Nausea (Cohort 1, 40 mg QW, N = 25): 6 (24.0%) n (%) | TEAE Neutropenia (Cohort 1, 40 mg QW, N = 25): 2 (8.0%) n (%) | TEAE Oedema peripheral (Cohort 1, 40 mg QW, N = 25): 3 (12.0%) n (%) | TEAE Oral Candidiasis (Cohort 1, 40 mg QW, N = 25): 0 n (%) | TEAE Pneumonia (Cohort 1, 40 mg QW, N = 25): 1 (4.0%) n (%) | TEAE Pyrexia (Cohort 1, 40 mg QW, N = 25): 1 (4.0%) n (%) | TEAE Recurrent flatulence (Cohort 1, 40 mg QW, N = 25): 0 n (%) | TEAE Renal Failure (Cohort 1, 40 mg QW, N = 25): 1 (4.0%) n (%) | TEAE Staphylococcal Bacteremia (Cohort 1, 40 mg QW, N = 25): 0 n (%) | TEAE Thrombocytopenia (Cohort 1, 40 mg QW, N = 25): 3 (12.0%) n (%) | TEAE Tremor (Cohort 1, 40 mg QW, N = 25): 3 (12.0%) n (%) | TEAE Vomiting (Cohort 1, 40 mg QW, N = 25): 2 (8.0%) n (%) | Vomiting leading to study drug withdrawal (Cohort 1, 40 mg QW, N = 25): 0% | All AEs, Grade 5 (deaths) (Cohort 1, 40 mg QW, N = 25, entire study duration): 2 (8.0%) | Subjects completed treatment [1]: 9 (36.0%) n (%) | Subjects who permanently discontinued treatment [1]: 16 (64.0%) n (%) | subjects discontinued due to neutropenia (Cohort 2): 1 subject(s) | ALT (Screening) >3 × ULN-5 × ULN, subjects (Cohort 2, 100 mg QW): 0 | ALT (Screening) >5 × ULN-10 × ULN, subjects (Cohort 2, 100 mg QW): 0 | ALT (Screening) >10 × ULN-20 × ULN, subjects (Cohort 2, 100 mg QW): 0 | ALT (Screening) >20 × ULN, subjects (Cohort 2, 100 mg QW): 0 | ALT (any time during therapy) >3 × ULN-5 × ULN, subjects (Cohort 2, 100 mg QW): 1 (3.7%) | ALT (any time during therapy) >5 × ULN-10 × ULN, subjects (Cohort 2, 100 mg QW): 0 | ALT (any time during therapy) >10 × ULN-20 × ULN, subjects (Cohort 2, 100 mg QW): 1 (3.7%) | ALT (any time during therapy) >20 × ULN, subjects (Cohort 2, 100 mg QW): 0 | AST (Screening) >3 × ULN-5 × ULN, subjects (Cohort 2, 100 mg QW): 0 | AST (Screening) >5 × ULN-10 × ULN, subjects (Cohort 2, 100 mg QW): 0 | AST (Screening) >10 × ULN-20 × ULN, subjects (Cohort 2, 100 mg QW): 0 | AST (Screening) >20 × ULN, subjects (Cohort 2, 100 mg QW): 0 | AST (any time during therapy) >3 × ULN-5 × ULN, subjects (Cohort 2, 100 mg QW): 1 (3.7%) | AST (any time during therapy) >5 × ULN-10 × ULN, subjects (Cohort 2, 100 mg QW): 0 | AST (any time during therapy) >10 × ULN-20 × ULN, subjects (Cohort 2, 100 mg QW): 0 | AST (any time during therapy) >20 × ULN, subjects (Cohort 2, 100 mg QW): 0
